{
  "source": "patent US6350768B1",
  "about": "(Aventis Pharma S.A., priority 1999, dated 2002)",
  "tested_on": "purified rat motoneurons",
  "settings": "BDNF 1 ng/ml",
  "experimental": "The effect of the combination has been studied on the cellular death of purified rat motoneurons which is induced by sera from patients suffering from amyotrophic lateral sclerosis.\nPurified motoneurons prepared from the spinal cord of rat embryos at 14 days of gestation are cultured in the presence of optimum concentrations of recombinant “brain-derived neurotrophic factor” (BDNF), one of the principal neurotrophic factors for the survival of the motoneurons. […] After a further 2 hours, dilutions of dialyzed sera from patients suffering from ALS are added. On the next day, the number of surviving motoneurons is evaluated by direct counting under a phase contrast microscope.\nThe stock solution of gabapentin is prepared directly by dissolving 17.1 mg of gabapentin in 1 ml of double distilled water.\nRat embryos at 14 days of gestation (Charles River, France) are recovered after sacrificing the mother, under CO2 anesthesia, by pulling the neck. These embryos are placed in phosphate buffer (“phosphate-buffered saline”, PBS) free of calcium and magnesium (Life Technologies).\nUnless otherwise stated, the composition of the media used is identical to that indicated in these references. Spinal cords from rat embryos at 14 days of gestation are dissected in sterile PBS and the ventral halves of each cord containing the motoneurons are subdissected. […]",
  "data": [
    {"molecule": "NCC1(CC(=O)O)CCCCC1", "note": "[Gabapentin]", "values": [
      {"measurement": "Number of motoneurons, Mean (± SEM)", "setting": "mean of 8 measurements, 4 wells, ALS serum 0.1%, Gabapentin 10^−5 M alone", "result": 5.0},
      {"measurement": "survival of the motoneurons", "setting": "medium treated with gabapentin alone, ALS serum", "result": 8, "unit": "%"}
    ]}
  ]
}
